{
  "source": "patent US6462173B1",
  "about": "“Inhibitors of phosphoserine and phosphothreonine-proline-specific isomerases” (Max-Planck-Gesellschaft zur Forderung der, priority 1997, dated 2002)",
  "key": {"[1]": {"target": "T1, mitotic GST-Cdc25 (Xenopus laevis, UniProt P30309)", "T1 construct": "made in house", "T1 sequence (P30309 1-550)": "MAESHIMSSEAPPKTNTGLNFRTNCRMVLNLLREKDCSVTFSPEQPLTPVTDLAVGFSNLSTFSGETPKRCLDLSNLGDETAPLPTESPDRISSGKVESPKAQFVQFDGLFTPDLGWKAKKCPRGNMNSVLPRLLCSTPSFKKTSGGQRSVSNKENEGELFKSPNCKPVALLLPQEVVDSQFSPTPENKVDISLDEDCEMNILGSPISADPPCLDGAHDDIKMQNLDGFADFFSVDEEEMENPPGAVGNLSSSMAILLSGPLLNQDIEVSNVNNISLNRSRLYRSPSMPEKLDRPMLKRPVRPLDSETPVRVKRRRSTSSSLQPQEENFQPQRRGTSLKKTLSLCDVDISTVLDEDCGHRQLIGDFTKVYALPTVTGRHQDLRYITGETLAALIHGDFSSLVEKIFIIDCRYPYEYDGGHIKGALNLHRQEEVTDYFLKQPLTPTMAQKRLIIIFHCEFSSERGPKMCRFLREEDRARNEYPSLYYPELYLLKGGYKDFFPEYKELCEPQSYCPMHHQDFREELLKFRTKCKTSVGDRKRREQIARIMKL", "assay": "Cdc25 activity assay (activation of cyclin B/Cdc2, H1 kinase)", "assay_type": "biochemical", "details": "0.67 μM protein, 1 μM mitotic Cdc25", "protocol": "Cdc2 was assayed using histone H1 as a substrate, as previously described in Murray, 1991; Lu and Hunter, (1995).\nA subthreshold concentration of GST cyclin B (10 μg) was added to 1 ml of Xenopus interphase extract for thirty min at room temperature (Solomon, M. J., M. Glotzer, T. H. Lee, M. Philippe and M. W. Kirschner, Cell 63:1013-1024 (1990). This was diluted 8 fold in XB+3 mM DTT, rotated for 1 h with 3 ml of GST agarose beads, washed 3 times in XBIP (XB+500 mM NaCl and 1% NP40+2 mM DTT), washed 2 times (once overnight) in EB (80 mM β glycerol phosphate, 15 mM EGTA, 15 mM MgCl2)+2 mM DTT, 500 mM NaCl and 1% NP40, and finally twice with EB+10 mM DTT. These Cdc25 assay beads were stored at 4° C. for up to 1 month. Mitotic GST-Cdc25 was purified by incubating 22 μg of GST-Cdc25, in a Xenopus mitotic extract for 30 min at 23° C., this was diluted 8 fold in XB and rotated with 50 μl of glutathione-Agarose beads (Sigma) for 1 hr at 4° C. The beads were washed 5 times in XB-IP, twice in XB+2 mM DTT and eluted in 25 μl XB+2 mM reduced GSH. The final concentration of Mitotic GST-Cdc25 was 0.36 mg/ml. […] Phosphoimager analysis of the H1 kinase assays were quantified by the Molecular Dynamics ImageQuant 3.3 software. […] The most reproducible way to quantify the Cdc25 activity in this assay was by determining the endpoint dilution of Cdc25 which could activate Cdc2. […]"}, "[2]": {"system": "Xenopus embryos", "assay": "Microinjection of Xenopus embryos, cell cycle block", "assay_type": "in vivo", "protocol": "Unfertilized eggs were incubated with sperm, dejellied, and 4 μM of the indicated protein (about 10 fold above the estimated endogenous levels) was injected in one cell of two cell stage embryos (30 embryos each protein). The injected embryos were allowed to develop at 18° C. to stage 8 and pictures were taken of typical embryos. The titration of Pin1 and the mutants was essentially as described above except that the indicated protein was injected into one cell of 4 cell stage (18 embryos each Pin1 concentration) to the indicated final concentration and allowed to develop for 3h. […] To be consistent, cell cycle blocked embryo's were scored as those that contained at least one cell on the injected side that was greater than 5 times larger than uninjected cells (FIG. 2).\nTo examine whether increasing the concentration of Pin1 has similar biological effects in Xenopus, Pin1 or Pin1 mutants were injected into one cell of 2 cell stage embryos and allowed the embryos to develop for 3 h (about 5 divisions). […] In contrast, the same extracts containing 40 μM of either BSA or the mutant Pin1 proteins entered mitosis by 70 to 80 min as detected by nuclear envelope breakdown, spindle formation and high histone H1 kinase activity. […]"}},
  "data": [
    {"substance": "Pin1: essential mitotic peptidyl-prolyl cis-trans isomerase, recombinant protein", "values": [
      {"measurement": "effect on Cdc25 activity", "setting": "[1]", "result": "mitotic Cdc25 failed to activate the Cdc2 complex"},
      {"measurement": "cleavage of injected cells", "setting": "[2]; 4 μM final, one cell of 2 cell stage embryos, 3 h", "result": "failed to cleave or cleaved slowly"},
      {"measurement": "inhibition of the cell cycle", "setting": "[2]; 10 μM, approximately 20 fold above estimated endogenous levels", "result": "completely inhibited the cell cycle"}
    ]}
  ]
}
